Read-outs that look alike come from different tables or passages of the source.
How the values were obtained:
[1] = 21-membered ring
[2] = amide bond, HATU/DIEA, DMF

## CCOC(=O)CC(c1ccc2c(c1)CNCC2)c1ccc2c(nnn2CCCCCN2CCN(C(=O)Oc3ccc([N+](=O)[O-])cc3)CC2)c1C (stereo not shown)
[1]; the molecule shown is the open-chain precursor, other bond, K2CO3 (microwave), DMF, 10.2 mM, 130.0 °C, 2 steps
  ring closure, yield after HPLC: 72%

## CCOC(=O)CC1c2ccc(C)c(c2)CN(C)C(=O)c2ccc(cc2)COCCCn2nnc3c(C)c1ccc32 (stereo not shown)
[2]; from CCOC(=O)CC(c1ccc(C)c(CNC)c1)c1ccc2c(nnn2CCCOCc2ccc(C(=O)O)cc2)c1C, 21-membered ring, 46.6 mM, 20.0 °C, 2.0 h
  ring closure, isolated yield: 95.2%

## CCOC(=O)CC1c2ccc3c(c2)CN(CC3)S(=O)(=O)N2CCC(CC2)OCC=CCn2nnc3c(C)c1ccc32 (stereo not shown)
[1]; from C=CCOC1CCN(S(=O)(=O)N2CCc3ccc(C(CC(=O)OCC)c4ccc5c(nnn5C/C=C/C)c4C)cc3C2)CC1, rcm bond, Grubbs catalyst, DCM, 6.2 mM, 40.0 °C, 19.0 h
  ring closure, yield after HPLC: 89.4%

## CCOC(=O)CC1c2cccc(c2)CN(C)C(=O)c2ccc(cc2)COCCCn2nnc3c(C)c1ccc32 (stereo not shown)
[2]; from CCOC(=O)CC(c1cccc(CNC)c1)c1ccc2c(nnn2CCCOCc2ccc(C(=O)O)cc2)c1C, 21-membered ring, 73.0 mM, 25.0 °C
  ring closure, isolated yield: 58.2%

## CCOC(=O)C[C@@H](c1ccc2c(c1)CNCC2)c1ccc2c(nnn2CCCOCC2CCN(C(=O)Oc3c(F)c(F)c(F)c(F)c3F)CC2)c1C
[1]; the molecule shown is the open-chain precursor, other bond, K2CO3/microwave, DMF, 24.7 mM, 120.0 °C
  ring closure, yield after HPLC: 20.9%

## COC(=O)CC1c2ccc3c(nnn3CCOCCOC3CCN(CC3)C(=O)c3ccc4c(c3)CN1CC4)c2C (stereo not shown)
[2]; from COC(=O)CC(c1ccc2c(nnn2CCOCCOC2CCNCC2)c1C)N1CCc2ccc(C(=O)O)cc2C1, 22-membered ring, 35.4 mM, 20.0 °C, 2.0 h
  ring closure, isolated yield: 90.4%

## Cc1c2ccc3c1nnn3CCOCCN1CCN(CC1)C(=O)c1ccc3ccc(cc3c1)C2CC(=O)OC(C)(C)C (stereo not shown)
[2]; from Cc1c(C(CC(=O)OC(C)(C)C)c2ccc3ccc(C(=O)O)cc3c2)ccc2c1nnn2CCOCCN1CCNCC1, 21-membered ring, 72.0 mM, 25.0 °C, 19.0 h
  ring closure, isolated yield: 19.5%
